Measured values reported in patent US20240132431A1, “METHOD FOR ALKYLATING ACIDIC FUNCTIONAL GROUP” (Chugai Seiyaku Kabushiki Kaisha, priority 2021, published 2024).

Biological target: T1, Bcl-2 protein (Recombinant Human Bcl-2 Protein) (Homo sapiens, UniProt P10415)
T1 construct: purchased Novus NBP2-34889
Assay: Binding evaluation of mixture library compounds to Bcl-2 using AS-MS (affinity selection mass spectrometry)
Details: for ASMS ratio (%) n = 1 / ASMS ratio (%) n = 2: ASMS Ratio(%)=(A−C)/B×100; for ASMS ratio (%) n = 1: replicate n = 1; for ASMS ratio (%) n = 2: replicate n = 2
Outline: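 ASMS Ratio (%) was calculated as (A−C)/B×100, where A is the protein sample after SEC, B the protein-free sample without SEC and C the protein-free sample after SEC. Each compound was at […] in a 1200-member pool with 20 μM Bcl-2, incubated 1 h at 23° C.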

[1] = AS-MS, mixture of 1200 compounds, Bcl-2
[2] = AS-MS on the mixture of 1200 library compounds

T1 sequence (P10415 whole entry): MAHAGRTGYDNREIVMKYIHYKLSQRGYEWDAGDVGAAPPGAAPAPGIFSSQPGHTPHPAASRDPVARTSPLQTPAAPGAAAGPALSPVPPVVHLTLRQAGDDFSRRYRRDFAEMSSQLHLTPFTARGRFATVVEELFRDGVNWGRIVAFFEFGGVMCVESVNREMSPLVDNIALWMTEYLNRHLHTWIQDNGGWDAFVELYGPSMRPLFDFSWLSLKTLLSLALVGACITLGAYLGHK

How did the “ASMS ratio (%)” value (n = 1) turn out when `CCOc1cncc(-c2ccc(CN3CCN(c4ccc(C(=O)NS(C)(=O)=O)nn4)CC3)cc2C)c1` [B2I074-01, 6-[4-[[4-(5-Ethoxypyridin-3-yl)-3-methylphenyl]methyl]piperazin-1-yl]-N-methylsulfonylpyridazine-3-carboxamide] was run?
The value was 0.0%.

What about the “ASMS ratio (%)” value (n = 2) of the same compound?
The value was −8.4%.

What does the source list for `CCOc1cncc(-c2cc(C(=O)N3CCN(c4ccc(C(=O)NCC56CC7CC(CC(C7)C5)C6)cc4)CC3)cc(C(C)(C)C)c2)c1` [B1A038-01, N-(1-Adamantylmethyl)-4-[4-[3-tert-butyl-5-(5-ethoxypyridin-3-yl)benzoyl]piperazin-1-yl]benzamide]?
ASMS ratio (%) n = 1 [1]: 6.5%; ASMS ratio (%) n = 2 [1]: −6.4%

Which “ASMS ratio (%) n = 1” value (AS-MS, mixture library, Bcl-2) does the source give for `CCOc1cccc(-c2cc(OC)c(CN3CCN(c4ccc(C(=O)NS(=O)(=O)CC56CC7CC(CC(C7)C5)C6)nn4)CC3)c(OC)c2)c1` [B2A085-01, N-(1-Adamantylmethylsulfonyl)-6-[4-[[4-(3-ethoxyphenyl)-2,6-dimethoxyphenyl]methyl]piperazin-1-yl]pyridazine-3-carboxamide] here?
The value was 0.0%.

What about the “ASMS ratio (%) n = 2” value (AS-MS, mixture library, Bcl-2) of the same compound?
Its value is 0.0%.

`CCOc1cccc(-c2cnn(-c3cc(C(=O)N4CCN(c5ccc(C(=O)NCC67CC8CC(CC(C8)C6)C7)nn5)CC4)cc(C(F)(F)F)c3)c2)c1` [B1A021-01, N-(1-Adamantylmethyl)-6-[4-[3-[4-(3-ethoxyphenyl)pyrazol-1-yl]-5-(trifluoromethyl)benzoyl]piperazin-1-yl]pyridazine-3-carboxamide] was tested. Which “ASMS ratio (%) n = 1” value [1] did it give?
Its value is −1.3%.

And the “ASMS ratio (%) n = 2” value [1]?
Its value is −3.7%.

`CCOc1cncc(-c2cc(C(=O)N3CCN(c4ccc(C(=O)NS(=O)(=O)c5ccc(NCCSc6ccccc6)c(C(F)(F)F)c5)cc4)CC3)cc(C(C)(C)C)c2)c1` [B2R038-01, 4-[4-[3-tert-Butyl-5-(5-ethoxypyridin-3-yl)benzoyl]piperazin-1-yl]-N-[4-(2-phenylsulfanylethylamino)-3-(trifluoromethyl)phenyl]sulfonylbenzamide] was tested. Which “ASMS ratio (%)” value (n = 1) did it give?
Its value is 7.1%.

What about the “ASMS ratio (%)” value (n = 2) of the same compound?
Its value is −6.0%.

Which “ASMS ratio (%)” value (n = 1) does the source give for `CCOc1cncc(-c2ccc(CN3CCN(c4ccc(C(=O)NS(=O)(=O)c5ccc(NCCSc6ccccc6)c(C(F)(F)F)c5)cc4)CC3)c(CC)c2)c1` [B2R050-01, 4-[4-[[4-(5-Ethoxypyridin-3-yl)-2-ethylphenyl]methyl]piperazin-1-yl]-N-[4-(2-phenylsulfanylethylamino)-3-(trifluoromethyl)phenyl]sulfonylbenzamide] here?
Its value is 0.0%.

And the “ASMS ratio (%)” value (n = 2)?
Its value is 0.0%.

Which results are given for `CCOc1cccc(-c2cnn(-c3cc(C(=O)N4CCN(c5ccc(C(=O)Nc6ccc(OC)cc6)cc5)CC4)cc(C(F)(F)F)c3)c2)c1` [B1O043-01, 4-[4-[3-[4-(3-Ethoxyphenyl)pyrazol-1-yl]-5-(trifluoromethyl)benzoyl]piperazin-1-yl]-N-(4-methoxyphenyl)benzamide]?
ASMS ratio (%) n = 1 [2]: 2.2%; ASMS ratio (%) n = 2 [2]: −5.0%

Which results are given for `CCOc1cncc(-c2ccccc2CCC(=O)N2CCN(c3ccc(C(=O)NS(=O)(=O)CCC(F)(F)F)nn3)CC2)c1` [B2N012-01, 6-[4-[3-[2-(5-Ethoxypyridin-3-yl)phenyl]propanoyl]piperazin-1-yl]-N-(3,3,3-trifluoropropylsulfonyl)pyridazine-3-carboxamide]?
ASMS ratio (%) (n = 1): 0.0%; ASMS ratio (%) (n = 2): 0.0%

For `CCOc1cccc(-c2ccc(CN3CCN(c4ccc(C(=O)NS(=O)(=O)C(C)(C)C)nn4)CC3)cc2F)c1` [B2L077-01, N-tert-Butylsulfonyl-6-[4-[[4-(3-ethoxyphenyl)-3-fluorophenyl]methyl]piperazin-1-yl]pyridazine-3-carboxamide], which “ASMS ratio (%)” value (n = 1) is on record?
The value was 0.0%.

And the “ASMS ratio (%)” value (n = 2)?
The value was 0.0%.

`CCOc1cccc(-c2cc(CN3CCN(c4ccc(C(=O)NCC56CC7CC(CC(C7)C5)C6)cc4)CC3)cc(OC(F)(F)F)c2)c1` [B1A063-01, N-(1-Adamantylmethyl)-4-[4-[[3-(3-ethoxyphenyl)-5-(trifluoromethoxy)phenyl]methyl]piperazin-1-yl]benzamide] was tested. Which “ASMS ratio (%) n = 1” value [1] did it give?
Its value is −1.0%.

What about the “ASMS ratio (%) n = 2” value [1] of the same compound?
The value was −11.0%.

`CCOc1cncc(-c2ccc(CN3CCN(c4ccc(C(=O)NS(=O)(=O)C(C)(C)C)nn4)CC3)cc2F)c1` [B2L078-01] was tested. Which “ASMS ratio (%)” value (n = 1) did it give?
Its value is 1.1%.

And the “ASMS ratio (%)” value (n = 2)?
Its value is −0.7%.

For `CCOc1cncc(-c2cc(C(=O)N3CCN(c4ccc(C(=O)NS(=O)(=O)CCC(F)(F)F)nn4)CC3)cc(C(F)(F)F)c2)c1` [B2N018-01, 6-[4-[3-(5-Ethoxypyridin-3-yl)-5-(trifluoromethyl)benzoyl]piperazin-1-yl]-N-(3,3,3-trifluoropropylsulfonyl)pyridazine-3-carboxamide], which “ASMS ratio (%)” value (n = 1) is on record?
Its value is 0.0%.

What about the “ASMS ratio (%)” value (n = 2) of the same compound?
The value was 1.0%.

For `CCOc1cccc(C#Cc2ccccc2C(=O)N2CCN(c3ccc(C(=O)NS(=O)(=O)c4ccc(NCCSc5ccccc5)c(C(F)(F)F)c4)nn3)CC2)c1` [B2R007-01, 6-[4-[2-[2-(3-Ethoxyphenyl)ethynyl]benzoyl]piperazin-1-yl]-N-[4-(2-phenylsulfanylethylamino)-3-(trifluoromethyl)phenyl]sulfonylpyridazine-3-carboxamide], which “ASMS ratio (%)” value (n = 1) is on record?
Its value is 0.0%.

Which “ASMS ratio (%) n = 1” value [1] does the source give for `CCOc1cncc(-c2cc(CN3CCN(c4ccc(C(=O)NCC56CC7CC(CC(C7)C5)C6)nn4)CC3)cc(OC(C)C)c2)c1` [B1A084-01, N-(1-Adamantylmethyl)-6-[4-[[3-(5-ethoxypyridin-3-yl)-5-propan-2-yloxyphenyl]methyl]piperazin-1-yl]pyridazine-3-carboxamide] here?
The value was 2.1%.

And the “ASMS ratio (%) n = 2” value [1]?
The value was −2.7%.

For `CCOc1cncc(-c2ccc(C(=O)N3CCN(c4ccc(C(=O)NCC(F)(F)F)nn4)CC3)cc2F)c1` [B1K006-01, 6-[4-[4-(5-Ethoxypyridin-3-yl)-3-fluorobenzoyl]piperazin-1-yl]-N-(2,2,2-trifluoroethyl)pyridazine-3-carboxamide], which “ASMS ratio (%) n = 1” value [1] is on record?
Its value is −0.6%.

And the “ASMS ratio (%) n = 2” value [1]?
Its value is 0.0%.

How did the “ASMS ratio (%) n = 1” value (AS-MS, mixture library, Bcl-2) turn out when `CCOc1cncc(C#Cc2ccccc2C(=O)N2CCN(c3ccc(C(=O)NS(=O)(=O)c4ccc(NCCSc5ccccc5)c([N+](=O)[O-])c4)nn3)CC2)c1` [B2Q008-01, 6-[4-[2-[2-(5-Ethoxypyridin-3-yl)ethynyl]benzoyl]piperazin-1-yl]-N-[3-nitro-4-(2-phenylsulfanylethylamino)phenyl]sulfonylpyridazine-3-carboxamide] was run?
Its value is 16.5%.

And the “ASMS ratio (%) n = 2” value (AS-MS, mixture library, Bcl-2)?
Its value is 0.5%.

With `CCOc1cncc(-c2cc(OC)c(CN3CCN(c4ccc(C(=O)NCC56CC7CC(CC(C7)C5)C6)cc4)CC3)c(OC)c2)c1` [B1A060-01, N-(1-Adamantylmethyl)-4-[4-[[4-(5-ethoxypyridin-3-yl)-2,6-dimethoxyphenyl]methyl]piperazin-1-yl]benzamide] as the compound, how does the “ASMS ratio (%) n = 1” value [1] read?
The value was 0.0%.

Which “ASMS ratio (%) n = 1” value (AS-MS, mixture library, Bcl-2) does the source give for `CCOc1cccc(-c2cc(CN3CCN(c4ccc(C(=O)NS(=O)(=O)c5ccc(NCCSc6ccccc6)c([N+](=O)[O-])c5)nn4)CC3)cc(OC(F)(F)F)c2)c1` [B2Q089-01, 6-[4-[[3-(3-Ethoxyphenyl)-5-(trifluoromethoxy)phenyl]methyl]piperazin-1-yl]-N-[3-nitro-4-(2-phenylsulfanylethylamino)phenyl]sulfonylpyridazine-3-carboxamide] here?
The value was 25.0%.

What about the “ASMS ratio (%) n = 2” value (AS-MS, mixture library, Bcl-2) of the same compound?
The value was 15.0%.

How did the “ASMS ratio (%)” value (n = 1) turn out when `CCOc1cncc(-c2cc(CN3CCN(c4ccc(C(=O)NS(C)(=O)=O)nn4)CC3)cc(OC(C)C)c2)c1` [B2I084-01] was run?
The value was −0.9%.

What about the “ASMS ratio (%)” value (n = 2) of the same compound?
The value was −1.5%.

For `CCOc1cncc(-c2ccc(CN3CCN(c4ccc(C(=O)NS(=O)(=O)CC56CC7CC(CC(C7)C5)C6)nn4)CC3)c(CC)c2)c1` [B2A076-01, N-(1-Adamantylmethylsulfonyl)-6-[4-[[4-(5-ethoxypyridin-3-yl)-2-ethylphenyl]methyl]piperazin-1-yl]pyridazine-3-carboxamide], which “ASMS ratio (%) n = 1” value (AS-MS, mixture library, Bcl-2) is on record?
The value was 23.4%.

And the “ASMS ratio (%) n = 2” value (AS-MS, mixture library, Bcl-2)?
The value was 11.4%.

For `CCOc1cncc(-c2cc(C(=O)N3CCN(c4ccc(C(=O)NS(=O)(=O)C(C)(C)C)nn4)CC3)cc(C(F)(F)F)c2)c1` [B2L018-01, N-tert-Butylsulfonyl-6-[4-[3-(5-ethoxypyridin-3-yl)-5-(trifluoromethyl)benzoyl]piperazin-1-yl]pyridazine-3-carboxamide], which “ASMS ratio (%)” value (n = 1) is on record?
The value was −1.9%.

What about the “ASMS ratio (%)” value (n = 2) of the same compound?
The value was −2.5%.

Which results are given for `CCOc1cccc(-c2ccc(C(=O)N3CCN(c4ccc(C(=O)NS(=O)(=O)C(C)(C)C)nn4)CC3)cc2F)c1` [B2L005-01, N-tert-Butylsulfonyl-6-[4-[4-(3-ethoxyphenyl)-3-fluorobenzoyl]piperazin-1-yl]pyridazine-3-carboxamide]?
ASMS ratio (%) (n = 1): 0.0%; ASMS ratio (%) (n = 2): 0.0%

Which results are given for `CCOc1cncc(-c2ccc(C(C)N3CCN(c4ccc(C(=O)N(C)CC56CC7CC(CC(C7)C5)C6)cc4)CC3)c(F)c2)c1` (centres unmarked) [B3A100-01, N-(1-Adamantylmethyl)-4-[4-[1-[4-(5-ethoxypyridin-3-yl)-2-fluorophenyl]ethyl]piperazin-1-yl]-N-methylbenzamide]?
ASMS ratio (%) n = 1 [2]: −39.8%; ASMS ratio (%) n = 2 [2]: 0.0%
